Assay [1] deals with Bcl-xL (GST-Bcl-xL) (Homo sapiens, UniProt Q07817). As to the kind of experiment: TR-FRET binding assay, competition with F-Bak for the Bcl-xL binding site. Particulars: values listed in the order of Table 1, read-out: TR-FRET assay results (Ki), Bcl-xL.
Assay [2] deals with T1, Bcl-2 (GST-Bcl-2) (Homo sapiens, UniProt P10415).
T1 construct: made in house
The assay can be described thus: TR-FRET binding assay, competition with F-Bak for the Bcl-2 binding site. Conditions: Bcl-2, for comparison (selectivity). The method, then: For each assay plate, a probe/antibody and protein/antibody/probe mixture were included as a negative and a positive control, respectively. Fluorescence was measured on the Envision (Perkin Elmer) using a 340/35 nm excitation filter and 520/525 (F-Bak) and 495/510 nm (Tb-labeled anti-his antibody) emission filters. Dissociation constants (Ki) were determined using Wang's equation (see, Wang, Z. X. An exact mathematical expression for describing competitive binding of two different ligands to a protein molecule. FEBS Lett. 1995 360:111-114). The TR-FRET assay can be performed in the presence of varying concentrations of human serum (HS) or fetal bovine serum (FBS). For comparison, the measurement of the competition of compounds of the invention for other Bcl-2 family protein binding sites (e.g., Bcl-2, Mcl-1) using the TR-FRET binding assay was accomplish by substituting GST-Bcl-xL in the TR-FRET assay with other GST-labeled protein, e.g., GST-Bcl-2, GST-Mcl-1, prepared in-house.

The subject of assay [3] is Mcl-1-/- mouse embryonic fibroblasts (MEF). As to the kind of experiment: Cell viability assay for Mcl-1-/- mouse embryonic fibroblasts (CellTiter-Glo). The format is cell-based. Conditions: Fibroblast, in the presence of 10% Fetal Bovine Serum, read-out: MEF Mcl-1-/- KO cell viability results (EC50). From the text: a. Cell Viability Assay for Mcl-1^−/− Mouse Embryonic Fibroblasts (MEF): […]
In this assay, Mcl-1^(−/−) cells were used to confirm that cell apoptosis in the presence of BH3 mimetic small molecules was due to predominantly Bcl-xL inactivation. This inactivation leaves Bax/Bak unconstrained and results in apoptosis. The […]-GLO Luminescent Cell Viability Assay is a homogeneous method of determining the number of viable cells in culture based on quantitation of the ATP present. The amount of ATP correlates with the presence of metabolically active cells such that following cell lysis the amount of ATP present is proportional to the amount of luminescence measured.
Mcl-1^(−/−) mouse embryonic fibroblasts (MEFs) are an adherent cell line prepared in house. MEFs were grown in Iwaki 75 cm^2 tissue culture flasks (cat #3123-075) with FMA media which consists of • 89% DME Kelso • 10% heat-inactivated foetal calf serum (FCS) (Hyclone cat #SH30396.03) • 1% 10 mM asparagine (Fluka cat #11149) • 275 μl of a 1:2000 dilution of 2-mercaptoethanol is added to the final 500 ml volume of FMA (Sigma cat #M7522; diluted in MT-PBS)
FMA was stored at 4° C. and used at 37° C. MEFs were cultured in FMA media and harvested in MT-PBS and trypsin. For MEF cell viability assays, cells were seeded separately in plates with 10% FCS-FMA and 1% FCS-FMA.
Assays were performed using white, flat clear-bottom Greiner 384-well tissue culture grade (Interpath #781098) plates. The compounds were made up in Matrical 384-well, 25 μl V-bottomed plates (cat #MP101-2-PP), sealed with aluminium foil from Beckman Coulter (cat #538619) and stored at 12° C. overnight. Compound preparation and titrations were performed in AnalaR grade DMSO (Merck cat #1.02952.2500). The cell viability detection assay used was […]-GLO™ which is commercially available from Promega (cat #G7572), stored at −20° C. and used at 37° C.
Compounds of the invention were prepared as 10 mM solution in 100% DMSO and stored at −20° C. Compounds were thawed to room temperature and dispensed into a 384 well Matrical plate. Standard control compounds, e.g. 32.3 mM Etoposide, were added to the plate as controls.
The media was aspirated and the Mcl-1^(−/−) cells washed with 10 mls of warmed MT-PBS. MT-PBS was aspirated and 1 ml of trypsin was added. The T75 flasks were incubated at 37° C. until the cells became detached. 4 ml of 10% FCS FMA media was added to the trypsinized cells and the entire volume was transferred to a 50 ml centrifuge tube and centrifuged for 3 minutes at 250 g. The supernatant was aspirated and the pellet resuspended in 10 ml of 10% FCS FMA. 3 ml of this cell suspension was added to a clean 75 cm^2 flask containing 17 ml of 10% FCS FMA media, thus performing a 3:10 split. The remaining cell suspension was used to perform a 1:50 split into another 75 cm^2 flask for further culturing.
Cells were harvested as per method step 1 and the pellet resuspended in 3 mls 10% FCS FMA. Cell number was determined by counting in a Neubauer haemocytometer and the dilution calculated to achieve a density of 1×10^4 cells ml^−1 (500 cells per well in 50 μl media). Separate dilutions were prepared in 50 ml 10% FCS FMA and 50 ml 1% FCS FMA solutions respectively.
Four assay plates were set up per compound plate. Two 384 well plates containing Mcl-1^(−/−) cells in 10% FCS FMA and the other two plates containing Mcl-1^(−/−) cells in 1% FCS FMA.
Using the Multidrop, 25 μl cells were dispensed aseptically into all 384 wells of the assay plates. Plates were left to rest in a non-stacked layer at room temperature for approximately 30 minutes (minimizes edge-effects) and then were placed as a single layer in the 37° C. incubator. The plates were left to incubate overnight.
The compound plates were titrated by performing a 3-fold 11-point dilution series using 100% DMSO on the MiniTrak. Following titration of the compounds, 100 nl of compounds were added to the cell plates using the Zymark Sciclone Pintool. […]

Assay [4] concerns platelets. As to the kind of experiment: Cell viability assay for platelets (platelet rich plasma, CellTiter-Glo). The format is cell-based. Conditions: approximately 4 hours at 37 C. The method, then:
Platelet rich plasma (PRP) was incubated with a compound of the invention for approximately 4 hours at 37° C. After incubation, platelets were equilibrated to room temperature for 20 minutes and then and equal volume of CELL TITER-GLO™ reagent (Promega Corporation) was added. Samples were mixed for two minutes and then allowed to equilibrate for an additional 10 minutes at room temperature. The luminescence generated from the samples was quantitated using a LJL Analyst plate reader. Data analysis was performed using GraphPad Prism 4.0.

Assay [5] concerns NCI-H146 human small cell lung carcinoma cells. As to the kind of experiment: Cellular viability of human tumor cell line NCI-H146 (MTS assay). It is filed as cell-based. Particulars: 10% human serum, 48 hours of compound treatment. Here is the method:
NCI-H146 (ATCC, Manassas, Va.) human small cell lung carcinoma cells were plated 50,000 cells per well in 96-well tissue culture plates in a total volume of 100 μL tissue culture medium supplemented with 10% human serum (Invitrogen, Carlsbad, Calif.) and treated with a 2-fold serial dilution of the compounds of interest from 10 μM to […].
Each concentration was tested in duplicate at least 3 separate times. The number of viable cells following 48 hours of compound treatment was determined using the […] 96® Aqueous non-radioactive cell proliferation MTS assay according to manufacturer's recommendations (Promega Corp., Madison, Wis.).

T1 sequence (P10415 whole entry, species assumed): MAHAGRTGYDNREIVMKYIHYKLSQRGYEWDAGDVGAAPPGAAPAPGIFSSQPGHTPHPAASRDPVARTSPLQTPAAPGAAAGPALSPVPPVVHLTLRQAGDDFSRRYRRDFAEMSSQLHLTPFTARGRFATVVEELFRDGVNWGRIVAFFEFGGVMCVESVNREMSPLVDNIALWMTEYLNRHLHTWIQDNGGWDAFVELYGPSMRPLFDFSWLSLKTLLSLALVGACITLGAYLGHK
Bcl-xL (GST-Bcl-xL), sequence (Q07817 whole entry, species assumed): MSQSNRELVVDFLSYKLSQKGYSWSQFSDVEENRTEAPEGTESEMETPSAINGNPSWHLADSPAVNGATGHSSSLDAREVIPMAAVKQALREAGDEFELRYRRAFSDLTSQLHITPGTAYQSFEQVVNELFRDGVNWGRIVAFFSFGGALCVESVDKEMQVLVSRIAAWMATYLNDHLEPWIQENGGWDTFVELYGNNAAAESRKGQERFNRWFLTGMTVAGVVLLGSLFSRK

For `N#Cc1ncccc1-c1ccc(OCCCc2sc(N3CCc4cccc(C(=O)Nc5nc6ccccc6s5)c4C3)nc2C(=O)O)cc1` [Example 58, 2-[8-(Benzothiazol-2-ylcarbamoyl)-3,4-dihydro-1H-isoquinolin-2-yl]-5-{3-[4-(2-cyano-pyridin-3-yl)-phenoxy]-propyl}-thiazole-4-carboxylic acid], the inhibitory constant (Ki) in assay [1] stood at 0.5 nM; in assay [2], 310 nM. Moreover, the EC50 in assay [3] is 1300 nM.
The matching figures for `O=C(Nc1nc2ccccc2s1)c1cccc2c1CN(c1nc(C(=O)O)c(CCCOc3ccc(N4CCNCC4)cc3)s1)CC2` [Example 64, 2-[8-(Benzothiazol-2-ylcarbamoyl)-3,4-dihydro-1H-isoquinolin-2-yl]-5-[3-(4-piperazin-1-yl-phenoxy)-propyl]-thiazole-4-carboxylic acid]: 0.05 nM, 90 nM and 310 nM.
As for `CN(C)CC#Cc1ccc(OCCCc2sc(N3CCc4cccc(C(=O)Nc5nc6ccccc6s5)c4C3)nc2C(=O)O)cc1` [Example 74, 2-[8-(Benzothiazol-2-ylcarbamoyl)-3,4-dihydro-1H-isoquinolin-2-yl]-5-{3-[4-(3-dimethylamino-prop-1-ynyl)-phenoxy]-propyl}-thiazole-4-carboxylic acid], the figures for the Ki in assay [1] and in assay [2] were 0.05 nM and 60 nM, respectively. Further, the EC50 in assay [3] was 7 nM; in assay [4] it was 21 nM; in assay [5], 710 nM.
Regarding `O=C(Nc1nc2ccccc2s1)c1cccc2c1CN(c1nc(C(=O)O)c(CCCOc3ccc(-c4ncccn4)cc3)s1)CC2` [Example 81, 2-[8-(Benzothiazol-2-ylcarbamoyl)-3,4-dihydro-1H-isoquinolin-2-yl]-5-[3-(4-pyrimidin-2-yl-phenoxy)-propyl]-thiazole-4-carboxylic acid], the figures for the inhibitory constant (Ki) in assay [1] and in assay [2] were 0.05 nM and 110 nM, respectively. The EC50 in assay [3] is 10 nM.
As to `CN1CCN(c2ccc(OCCCc3sc(N4CCc5cccc(C(=O)Nc6nc7ccccc7s6)c5C4)nc3C(=O)O)cc2)CC1` [Example 82, 2-[8-(Benzothiazol-2-ylcarbamoyl)-3,4-dihydro-1H-isoquinolin-2-yl]-5-{3-[4-(4-methyl-piperazin-1-yl)-phenoxy]-propyl}-thiazole-4-carboxylic acid], the inhibition constant Ki is 0.05 nM in assay [1] and 120 nM in assay [2]. In addition, the EC50 in assay [3] came to 30 nM; in assay [5], 2500 nM.
The matching figures for `CN1CCN(CCCNc2ncnc3c2cnn3-c2ccc(OCCCc3sc(N4CCc5cccc(C(=O)Nc6nc7ccccc7s6)c5C4)nc3C(=O)O)cc2)CC1` [Example 84, 2-(8-(benzo[d]thiazol-2-ylcarbamoyl)-3,4-dihydroisoquinolin-2(1H)-yl)-5-(3-(4-(4-(3-(4-methylpiperazin-1-yl)propylamino)-1H-pyrazolo[3,4-d]pyrimidin-1-yl)phenoxy)propyl)thiazole-4-carboxylic acid]: 0.05 nM, 140 nM, 22 nM and 610 nM.
`O=C(Nc1nc2ccccc2s1)c1cccc2c1CN(c1nc(C(=O)O)c(CCCOc3ccc(OCCN4CCOCC4)cc3)s1)CC2` [Example 88, 2-[8-(Benzothiazol-2-ylcarbamoyl)-3,4-dihydro-1H-isoquinolin-2-yl]-5-{3-[4-(2-morpholin-4-yl-ethoxy)-phenoxy]-propyl}-thiazole-4-carboxylic acid]: the Ki came to 0.05 nM in assay [1] and 300 nM in assay [2]. Also, the figures for the EC50 in assay [3] and in assay [4] were 28 nM and 3 nM, respectively.
Consider `CN1CCN(c2ccc(OCCCc3sc(N4CCc5cccc(C(=O)Nc6nc7ccccc7s6)c5C4)nc3C(=O)O)c(F)c2)CC1` [Example 93, 2-[8-(Benzothiazol-2-ylcarbamoyl)-3,4-dihydro-1H-isoquinolin-2-yl]-5-{3-[2-fluoro-4-(4-methyl-piperazin-1-yl)-phenoxy]-propyl}-thiazole-4-carboxylic acid], for which the results for the inhibition constant Ki in assay [1] and in assay [2] were 0.05 nM and 155 nM, respectively. In addition, the EC50 in assay [5] turned out to be 3200 nM.
As for `CN1CCN(c2ccc(OCCCc3ccc(N4CCc5cccc(C(=O)Nc6nc7ccccc7s6)c5C4)nc3C(=O)O)cc2)CC1` [Example 94, 6-[8-(Benzothiazol-2-ylcarbamoyl)-3,4-dihydro-1H-isoquinolin-2-yl]-3-{3-[4-(4-methyl-piperazin-1-yl)-phenoxy]-propyl}-pyridine-2-carboxylic acid], the inhibition constant Ki stood at 2 nM in assay [1] and 572 nM in assay [2]. For the same compound, the EC50 in assay [3] came out at 448 nM.
Take `CN(C)CC#Cc1ccc(OCCCc2ccc(N3CCc4cccc(C(=O)Nc5nc6ccccc6s5)c4C3)nc2C(=O)O)c(F)c1` [Example 97, 6-(8-(benzo[d]thiazol-2-ylcarbamoyl)-3,4-dihydroisoquinolin-2(1H)-yl)-3-(3-(4-(3-(dimethylamino)prop-1-ynyl)-2-fluorophenoxy)propyl)picolinic acid]: the figures for the Ki in assay [1] and in assay [2] were 0.05 nM and 272 nM, respectively. Besides, the results for the EC50 in assay [3], in assay [4] and in assay [5] were 26 nM, 3 nM and 2400 nM, respectively.
Turning to `CN(C)CCCc1ccc(OCCCc2ccc(N3CCc4cccc(C(=O)Nc5nc6ccccc6s5)c4C3)nc2C(=O)O)c(F)c1` [Example 100, 6-[8-(Benzothiazol-2-ylcarbamoyl)-3,4-dihydro-1H-isoquinolin-2-yl]-3-{3-[4-(3-dimethylamino-propyl)-2-fluoro-phenoxy]-propyl}-pyridine-2-carboxylic acid], the values for the Ki in assay [1] and in assay [2] were 0.5 nM and 219 nM, respectively. In addition, the EC50 in assay [3] was found to be 399 nM.
